{
  "source": "patent US7323188B2",
  "about": "(priority 1997, dated 2008)",
  "conditions_in_all_cases": "in vivo",
  "key": {"[1]": {"test_system": "downy mildew (Pseudoperonospora cubensis)"}, "[2]": {"test_system": "downy mildew (Pseudoperonospora cubensis)", "remark": "listed apart in the source"}, "[3]": {"test_system": "downy mildew (Pseudoperonospora cubensis)", "remark": "listed apart in the source"}, "[4]": {"test_system": "downy mildew (Pseudoperonospora cubensis)", "remark": "listed apart in the source"}, "[5]": {"test_system": "late blight (Phytophthora infestans)"}, "[6]": {"test_system": "late blight (Phytophthora infestans)", "remark": "listed apart in the source"}, "[7]": {"test_system": "downy mildew (Pseudoperonospora cubensis)", "remark": "listed apart in the source"}},
  "note": "“And” between values parts separate entries of the source, which are not always exact repeats. Equal entries are not always repeated. Where two headings read alike, the source gives them in different places.",
  "data": [
    {"compound": "COCC(=O)N(c1c(C)cccc1C)C(C)C(=O)OC", "note": "(racemic) [Metalaxyl, methyl N-(2-methoxyacetyl)-N-(2,6-xylyl)-DL-alaninate]", "values": [
      {"measurement": "Incidence rate", "setting": "[1]", "result": "60% and 100%"}
    ]},
    {"compound": "CO/C=C(/C(=O)OC)c1ccccc1Oc1cc(Oc2ccccc2C#N)ncn1", "note": "[Compound (a), methyl (E)-2-{2-[6-(2-cyanophenoxy)pyrimidin-4-yloxy]phenyl}-3-methoxyacrylate]", "values": [
      {"measurement": "Theoretical incidence rate (Colby's formula)", "setting": "[1]", "result": "100 (100) %"}
    ]},
    {"compound": "CO/N=C(/C(=O)OC)c1ccccc1COc1ccccc1C", "note": "[Compound (b), methyl (E)-methoxyimino[α-(o-tolyloxy)-O-tolyl]acetate]", "values": [
      {"measurement": "Incidence rate", "setting": "[1]", "result": 100, "unit": "%"}
    ]},
    {"compound": "Cc1ccc(-c2c(Cl)nc(C#N)n2S(=O)(=O)N(C)C)cc1", "note": "[Compound No. 1, 4-chloro-2-cyano-1-dimethylsulfamoyl-5-(4-methylphenyl)imidazole]", "values": [
      {"measurement": "Incidence rate", "setting": "[2]", "result": "85% and 90%"},
      {"measurement": "Incidence rate", "setting": "[3]", "result": "87% and 95%"},
      {"measurement": "Lesion-free Area Ratio", "setting": "[4]", "result": 65, "unit": "%"},
      {"measurement": "Incidence rate", "setting": "[5]", "result": "47% and 50% and 31% and 37%"}
    ]},
    {"compound": "CCNC(=O)NC(=O)C(C#N)=NOC", "note": "[Cymoxanil, 1-(2-cyano-2-methoxyiminoacetyl)-3-ethylurea]", "values": [
      {"measurement": "Incidence rate", "setting": "[6]", "result": 100, "unit": "%"}
    ]},
    {"compound": "COc1ccc(C(=CC(=O)N2CCOCC2)c2ccc(Cl)cc2)cc1OC", "note": "[Dimethomorph, (E,Z)-4-[(3-(4-chlorophenyl)-3-(3,4-dimethoxyphenyl)acryloyl]morpholine]", "values": [
      {"measurement": "Incidence rate", "setting": "[1]", "result": "50% and 60%"},
      {"measurement": "Incidence rate", "setting": "[6]", "result": "85% and 100%"}
    ]},
    {"compound": "OP(O)O", "note": "[H2(PO3H), phosphorous acid]", "values": [
      {"measurement": "Incidence rate", "setting": "[2]", "result": 75, "unit": "%"},
      {"measurement": "Incidence rate", "setting": "[7]", "result": 75, "unit": "%"}
    ]},
    {"compound": "O=P([O-])([O-])O.[K+].[K+]", "note": "[K2HPO4, dipotassium hydrogenphosphate]", "values": [
      {"measurement": "Incidence rate", "setting": "[2]", "result": 95, "unit": "%"},
      {"measurement": "Incidence rate", "setting": "[7]", "result": 95, "unit": "%"}
    ]},
    {"compound": "O=P([O-])([O-])O.[Na+].[Na+]", "note": "[Na2HPO4, disodium hydrogenphosphate]", "values": [
      {"measurement": "Incidence rate", "setting": "[2]", "result": 100, "unit": "%"},
      {"measurement": "Incidence rate", "setting": "[7]", "result": 100, "unit": "%"}
    ]}
  ]
}
